Results published in US8377943B2, “2,4-diaminopyrimidine derivates as PTK2-inhibitors for the treatment of abnormal cell growth” (Boehringer Ingelheim International GmbH, priority 2008, dated 2013).

Legend:
PTK2 = target: T1, PTK2 (Homo sapiens, UniProt Q05397); assay: PTK2 Enzyme Test (DELFIA assay, poly-Glu-Tyr substrate); format: biochemical; conditions: active PTK2 enzyme, 50 μM ATP in ATP Mix, 1 h pre-incubation
T1 construct: purchased Invitrogen PV3832
Method in brief: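 Active PTK2 (0.01 μg/well) pre-incubated 1 h at RT with compound, then reacted 1 h with 50 μM ATP (in ATP mix) and poly(Glu,Tyr) 4:1 substrate, 2% DMSO final, pH 7.5. Biotinylated product captured on streptavidin, detected by Eu-PY20 time-resolved fluorescence; IC50 by sigmoidal fit, variable Hill slope.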

[1] = target: T2, PTK2-phosphorylation at tyrosine 397 (pY397) (Homo sapiens, UniProt Q05397); assay: Phospho-PTK2 (pY397) Assay in PC-3 cells; format: cell-based; conditions: PC-3 prostate carcinoma cells, 2 h incubation; read-out: PC3pPTK2 Y397 EC50
T2 construct: endogenous in cells; host or cells: PC-3 (ATCC CRL-1435)
Method in brief: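 PC-3 cells (2×10^4/well, F12K + 10% FCS) exposed to compound (about 0.8 nM–50 μM, 1% DMSO final) for 2 h at 37 °C. Then formaldehyde-fixed and immunostained with anti-pY397 PTK2 (total PTK2 control) and an HRP secondary. EC50 from sigmoidal fit with variable Hill slope.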

T2 sequence (Q05397 whole entry): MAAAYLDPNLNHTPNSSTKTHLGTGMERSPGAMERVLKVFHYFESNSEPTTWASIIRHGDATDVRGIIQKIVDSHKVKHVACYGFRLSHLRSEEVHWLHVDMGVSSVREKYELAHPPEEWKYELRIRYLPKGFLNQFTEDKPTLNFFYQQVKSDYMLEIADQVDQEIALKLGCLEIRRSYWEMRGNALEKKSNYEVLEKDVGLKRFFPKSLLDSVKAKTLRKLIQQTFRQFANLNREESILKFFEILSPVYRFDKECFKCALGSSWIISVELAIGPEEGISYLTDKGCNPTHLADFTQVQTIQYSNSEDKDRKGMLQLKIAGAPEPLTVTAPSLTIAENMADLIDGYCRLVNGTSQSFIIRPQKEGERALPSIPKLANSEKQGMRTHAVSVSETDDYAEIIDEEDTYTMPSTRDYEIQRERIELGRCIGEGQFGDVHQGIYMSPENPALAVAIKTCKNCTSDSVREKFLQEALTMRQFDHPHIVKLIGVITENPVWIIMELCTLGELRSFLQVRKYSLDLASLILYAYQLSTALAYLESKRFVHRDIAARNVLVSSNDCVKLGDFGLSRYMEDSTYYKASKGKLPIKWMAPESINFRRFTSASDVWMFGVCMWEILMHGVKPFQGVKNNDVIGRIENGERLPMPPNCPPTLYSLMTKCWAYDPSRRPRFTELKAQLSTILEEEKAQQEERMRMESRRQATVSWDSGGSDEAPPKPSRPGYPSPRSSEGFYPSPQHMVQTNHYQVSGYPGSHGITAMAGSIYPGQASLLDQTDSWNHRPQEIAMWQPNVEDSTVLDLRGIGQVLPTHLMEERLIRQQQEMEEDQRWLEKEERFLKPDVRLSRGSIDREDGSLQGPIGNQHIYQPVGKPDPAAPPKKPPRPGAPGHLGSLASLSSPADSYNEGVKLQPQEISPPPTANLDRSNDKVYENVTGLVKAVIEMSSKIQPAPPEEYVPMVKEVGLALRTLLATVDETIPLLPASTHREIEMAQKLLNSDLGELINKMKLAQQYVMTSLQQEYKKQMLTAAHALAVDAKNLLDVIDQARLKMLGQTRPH
T1 sequence (Q05397 whole entry): as above

Structure (SMILES) | IC50 (PTK2) [nM] | EC50 [1] [nM]
COc1cc(C(=O)NC2CCN(CC3CC3)CC2)ccc1Nc1ncc(C(F)(F)F)c(NCc2ccc(C)cc2N(C)S(C)(=O)=O)n1 [Example 30] | 4 | 0.29
COc1cc(C(=O)NC2CCN(C)CC2)c(Cl)cc1Nc1ncc(C(F)(F)F)c(NCc2ccc(C)cc2N(C)S(C)(=O)=O)n1 [Example 78] | 4 | 0.93
COc1cc(C(=O)NCC2CCCO2)ccc1Nc1ncc(C(F)(F)F)c(NCc2ccc(C)cc2N(C)S(C)(=O)=O)n1 (centres unmarked) [Example 70] | 4 | 0.74
COc1cc(C(=O)NC2CCOC2)ccc1Nc1ncc(C(F)(F)F)c(NCc2ccc(C)cc2N(C)S(C)(=O)=O)n1 (centres unmarked) [Example 64] | 3 | 0.67
COc1cc(N2CCN(C3COC3)CC2)ccc1Nc1ncc(C(F)(F)F)c(NCc2ccc(F)cc2N(C)S(C)(=O)=O)n1 [Example 98] | 3 | 2
COc1cc(C(=O)N(C)C)c(C)cc1Nc1ncc(C(F)(F)F)c(NCc2ccc(C)cc2N(C)S(C)(=O)=O)n1 [Example 123] | 9 | 3
COc1cc(CNC2CC2)ccc1Nc1ncc(C(F)(F)F)c(NCc2ccc(C)cc2N(C)S(C)(=O)=O)n1 [Example 72] | 3 | 0.75

More lines, now with the values ahead:

IC50 (PTK2) [nM] | EC50 [1] [nM] | Structure (SMILES)
2 | 0.56 | COc1cc(CN2CCCC2)ccc1Nc1ncc(C(F)(F)F)c(NCc2ccc(C)cc2N(C)S(C)(=O)=O)n1 [Example 56]
3 | 2 | COc1cc(C(=O)N[C@H]2CC[C@H](N3CCN(CC4CC4)CC3)CC2)ccc1Nc1ncc(C(F)(F)F)c(NCc2ccc(C)cc2N(C)S(C)(=O)=O)n1 [Example 95]
2 | 2 | COc1cc(C(=O)N(C)C2CCN(C)CC2)ccc1Nc1ncc(C(F)(F)F)c(NCc2ccc(C)cc2N(C)S(C)(=O)=O)n1 [Example 108]
3 | 0.22 | COc1cc(C(=O)N[C@H]2CCN(C)C[C@H]2F)c(F)cc1Nc1ncc(C(F)(F)F)c(NCc2ccc(C)cc2N(C)S(C)(=O)=O)n1 [Example 22]
3 | 0.55 | CNC(=O)c1cc(OC)c(Nc2ncc(C(F)(F)F)c(NCc3ccc(C)cc3N(C)S(C)(=O)=O)n2)cc1C [Example 54]
1 | 2 | COc1cc(C(=O)NC2CCN(C)CC2)c(F)cc1Nc1ncc(C(F)(F)F)c(NCc2ccc(Cl)cc2N(C)S(C)(=O)=O)n1 [Example 90]
